These results are taken from PubChem BioAssay AID624432 (The Scripps Research Institute Molecular Screening Center, 2012).

Activity calls are given as the source filed them.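 Rule for the calls: active = compounds whose fitted IC50 is below 25 µM; inactive = the rest.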

The target of the assay is Serine/threonine-protein phosphatase 5 (Homo sapiens) (UniProt P53041). In words: PP5 inhibitor potency, OMFP cleavage, dose response, biochemical, fluorescence, powder samples, fifth round (AID 624432). Conditions: purified PP5c, OMFP dephosphorylation.
Serine/threonine-protein phosphatase 5 (Homo sapiens), sequence (P53041 whole entry, looked up): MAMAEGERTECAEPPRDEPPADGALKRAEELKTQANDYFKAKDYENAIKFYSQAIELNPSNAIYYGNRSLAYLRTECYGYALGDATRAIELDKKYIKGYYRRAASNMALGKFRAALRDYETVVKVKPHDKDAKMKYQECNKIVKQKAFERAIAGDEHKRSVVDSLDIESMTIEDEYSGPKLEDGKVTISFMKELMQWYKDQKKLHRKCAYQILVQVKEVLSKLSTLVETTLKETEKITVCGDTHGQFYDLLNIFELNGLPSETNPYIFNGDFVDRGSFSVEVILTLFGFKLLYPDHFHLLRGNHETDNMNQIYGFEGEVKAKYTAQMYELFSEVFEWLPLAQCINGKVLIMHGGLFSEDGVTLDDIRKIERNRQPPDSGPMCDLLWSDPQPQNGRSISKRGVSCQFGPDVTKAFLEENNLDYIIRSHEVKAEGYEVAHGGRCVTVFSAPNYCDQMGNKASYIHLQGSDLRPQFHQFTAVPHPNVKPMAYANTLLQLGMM

`Cc1cccc(C)c1-c1n[nH]nc1C(=O)O`: the IC50 (commonly the concentration at which inhibition is half-maximal) is “inactive”.
The same measure for `O=C(O)c1n[nH]nc1-c1ccccc1C(F)(F)F`: > 1000 µM (inactive).
